# Measurements reported in PubChem BioAssay AID1918932 (Molecular Pharmacology Branch, DTP, NCI, 2023).
# Several values for one entry are separate records, joined by “and”; a condition that tells them apart may be missing. Equal values may be shown once.
# Test system: 171881-019-R-J1-PDC complex spheroid viability
# Assay: Anticancer human tumor 171881-019-R-J1-PDC patient-derived invasive breast carcinoma cell line growth inhibition
# Details: for viability, T/C: stronger effect = lower value
# Method in brief: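 Complex spheroids of tumor cells with HUVEC and human MSCs, exposed to iadademstat combined with other agents. Each agent tested in half-log steps from near clinical Cmax (else 10 microM top), DMSO ≤0.25%.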
# [1] = curve of first compound, second compound 0.1 µM
# [2] = curve of first compound, second compound 0.316 µM
# [3] = curve of first compound, second compound 1 µM
# [4] = curve of first compound, second compound 3.16 µM
# [5] = curve of first compound, second compound 10 µM
# [6] = second compound 0.1 µM, first compound 0.000949 µM
# [7] = second compound 0.1 µM, first compound 0.003 µM
# [8] = second compound 0.1 µM, first compound 0.00949 µM
# [9] = second compound 0.1 µM, first compound 0.03 µM
# [10] = second compound 0.1 µM, first compound 0.0949 µM
# [11] = second compound 0.1 µM, first compound 0.3 µM
# [12] = second compound 0.316 µM, first compound 0.000949 µM
# [13] = second compound 0.316 µM, first compound 0.003 µM
# [14] = second compound 0.316 µM, first compound 0.00949 µM
# [15] = second compound 0.316 µM, first compound 0.03 µM
# [16] = second compound 0.316 µM, first compound 0.0949 µM
# [17] = second compound 0.316 µM, first compound 0.3 µM
# [18] = second compound 1 µM, first compound 0.000949 µM
# [19] = second compound 1 µM, first compound 0.003 µM
# [20] = second compound 1 µM, first compound 0.00949 µM
# [21] = second compound 1 µM, first compound 0.03 µM
# [22] = second compound 1 µM, first compound 0.0949 µM
# [23] = second compound 1 µM, first compound 0.3 µM
# [24] = second compound 3.16 µM, first compound 0.000949 µM
# [25] = second compound 3.16 µM, first compound 0.003 µM
# [26] = second compound 3.16 µM, first compound 0.00949 µM
# [27] = second compound 3.16 µM, first compound 0.03 µM
# [28] = second compound 3.16 µM, first compound 0.0949 µM
# [29] = second compound 3.16 µM, first compound 0.3 µM
# [30] = second compound 10 µM, first compound 0.000949 µM
# [31] = second compound 10 µM, first compound 0.003 µM
# [32] = second compound 10 µM, first compound 0.00949 µM
# [33] = second compound 10 µM, first compound 0.03 µM
# [34] = second compound 10 µM, first compound 0.0949 µM
# [35] = second compound 10 µM, first compound 0.3 µM
compound,measurement,setting,value
Nc1ccn(C2OC(CO)C(O)C2(F)F)c(=O)n1 (centres undefined) + NC1CC1c1ccc(-c2cccc(O)c2)cc1,IC50,[1],> 300 nM
same,IC50,[2],> 300 nM
same,IC50,[3],> 300 nM
same,IC50,[4],> 300 nM
same,IC50,[5],> 300 nM
same,"viability, T/C",[6],65.1%
same,"viability, T/C",[7],61.8%
same,"viability, T/C",[8],57.8%
same,"viability, T/C",[9],61.2%
same,"viability, T/C",[10],65%
same,"viability, T/C",[11],64.1%
same,"viability, T/C",[12],70.9%
same,"viability, T/C",[13],63.8%
same,"viability, T/C",[14],59.7%
same,"viability, T/C",[15],60.9%
same,"viability, T/C",[16],66.6%
same,"viability, T/C",[17],64.1%
same,"viability, T/C",[18],76.6%
same,"viability, T/C",[19],62.6%
same,"viability, T/C",[20],59.5%
same,"viability, T/C",[21],62.2%
same,"viability, T/C",[22],62%
same,"viability, T/C",[23],63.8%
same,"viability, T/C",[24],74.8%
same,"viability, T/C",[25],58.3%
same,"viability, T/C",[26],57.8%
same,"viability, T/C",[27],56.6%
same,"viability, T/C",[28],60.2%
same,"viability, T/C",[29],63.2%
same,"viability, T/C",[30],65.7%
same,"viability, T/C",[31],61.2%
same,"viability, T/C",[32],52.4%
same,"viability, T/C",[33],55.6%
same,"viability, T/C",[34],59.1%
same,"viability, T/C",[35],56%
CC1(C)CCC(CN2CCN(c3ccc(C(=O)NS(=O)(=O)c4ccc(NCC5CCOCC5)c([N+](=O)[O-])c4)c(Oc4cnc5[nH]ccc5c4)c3)CC2)=C(c2ccc(Cl)cc2)C1,"viability, T/C",compound 0.0316 µM,93.7% and 93.8%
same,"viability, T/C",compound 0.1 µM,87% and 96.2%
same,"viability, T/C",compound 0.316 µM,93% and 86.7%
same,"viability, T/C",compound 1 µM,77% and 58.6%
same,"viability, T/C",compound 3.16 µM,37.4% and 21.2%
same,"viability, T/C",compound 10 µM,3.33% and 4.05%
same,IC50,curve of compound,2200 nM and 1310 nM
CC1COCCN1c1cc(-c2ccnn2C)c2ccnc(-c3ccn[nH]3)c2n1 (centres undefined),"viability, T/C",compound 0.00316 µM,55.2% and 49.8%
same,"viability, T/C",compound 0.01 µM,41.7% and 43.5%
same,"viability, T/C",compound 0.0316 µM,15.5% and 21.5%
same,"viability, T/C",compound 0.1 µM,7.25% and 9.16%
same,"viability, T/C",compound 0.316 µM,6.43% and 6.74%
same,"viability, T/C",compound 1 µM,5.29% and 6.58%
same,IC50,curve of compound,4.91 nM and < 3.16 nM
Nc1ncn(C2CC(O)C(CO)S2)c(=O)n1 (centres undefined) + NC1CC1c1ccc(-c2cccc(O)c2)cc1,IC50,[1],93.9 nM
same,IC50,[2],119 nM
same,IC50,[3],102 nM
same,IC50,[4],99.3 nM
same,IC50,[5],80.2 nM
same,"viability, T/C",[6],101%
same,"viability, T/C",[7],106%
same,"viability, T/C",[8],102%
same,"viability, T/C",[9],75.3%
same,"viability, T/C",[10],52.3%
same,"viability, T/C",[11],34.4%
same,"viability, T/C",[12],111%
same,"viability, T/C",[13],106%
same,"viability, T/C",[14],101%
same,"viability, T/C",[15],75.8%
same,"viability, T/C",[16],56.2%
same,"viability, T/C",[17],32.1%
same,"viability, T/C",[18],108%
same,"viability, T/C",[19],95.7%
same,"viability, T/C",[20],98.1%
same,"viability, T/C",[21],76.8%
same,"viability, T/C",[22],51.4%
same,"viability, T/C",[23],30.3%
same,"viability, T/C",[24],95.1%
same,"viability, T/C",[25],90.8%
same,"viability, T/C",[26],88.7%
same,"viability, T/C",[27],69.2%
same,"viability, T/C",[28],52.1%
same,"viability, T/C",[29],30.1%
same,"viability, T/C",[30],75.8%
same,"viability, T/C",[31],71.8%
same,"viability, T/C",[32],81.3%
same,"viability, T/C",[33],61.7%
same,"viability, T/C",[34],48.9%
same,"viability, T/C",[35],31%
